# Test results as given in ChEMBL document CHEMBL4507265 (2021).
# Experiments:
# [1] = target: Serine/threonine-protein kinase pim-3 (Homo sapiens) (UniProt Q86V86); settings: Compound concentration 1000.0 nM
# [2] = target: Cyclin-dependent kinase-like 3 (Homo sapiens) (UniProt Q8IVW4); settings: Compound concentration 1000.0 nM
# [3] = target: Mitogen-activated protein kinase kinase kinase 10 (Homo sapiens) (UniProt Q02779); settings: Compound concentration 1000.0 nM
# [4] = target: Ribosomal protein S6 kinase alpha-2 (Homo sapiens) (UniProt Q15349); settings: Compound concentration 1000.0 nM
# [5] = target: SNF-related serine/threonine-protein kinase (Homo sapiens) (UniProt Q9NRH2); settings: Compound concentration 1000.0 nM
# [6] = target: Myotonin-protein kinase (Homo sapiens) (UniProt Q09013); settings: Compound concentration 1000.0 nM
# [7] = target: Sigma non-opioid intracellular receptor 1 (Homo sapiens) (UniProt Q99720); settings: Compound concentration 10.0 uM
# [8] = target: Calcium/calmodulin-dependent protein kinase type 1 (Homo sapiens) (UniProt Q14012); settings: Compound concentration 1000.0 nM
# [9] = target: Fibroblast growth factor receptor 1 (Homo sapiens) (UniProt P11362); settings: Compound concentration 1000.0 nM
# Chain of Fibroblast growth factor receptor 1 (Homo sapiens) (P11362 22-822 limits assumed): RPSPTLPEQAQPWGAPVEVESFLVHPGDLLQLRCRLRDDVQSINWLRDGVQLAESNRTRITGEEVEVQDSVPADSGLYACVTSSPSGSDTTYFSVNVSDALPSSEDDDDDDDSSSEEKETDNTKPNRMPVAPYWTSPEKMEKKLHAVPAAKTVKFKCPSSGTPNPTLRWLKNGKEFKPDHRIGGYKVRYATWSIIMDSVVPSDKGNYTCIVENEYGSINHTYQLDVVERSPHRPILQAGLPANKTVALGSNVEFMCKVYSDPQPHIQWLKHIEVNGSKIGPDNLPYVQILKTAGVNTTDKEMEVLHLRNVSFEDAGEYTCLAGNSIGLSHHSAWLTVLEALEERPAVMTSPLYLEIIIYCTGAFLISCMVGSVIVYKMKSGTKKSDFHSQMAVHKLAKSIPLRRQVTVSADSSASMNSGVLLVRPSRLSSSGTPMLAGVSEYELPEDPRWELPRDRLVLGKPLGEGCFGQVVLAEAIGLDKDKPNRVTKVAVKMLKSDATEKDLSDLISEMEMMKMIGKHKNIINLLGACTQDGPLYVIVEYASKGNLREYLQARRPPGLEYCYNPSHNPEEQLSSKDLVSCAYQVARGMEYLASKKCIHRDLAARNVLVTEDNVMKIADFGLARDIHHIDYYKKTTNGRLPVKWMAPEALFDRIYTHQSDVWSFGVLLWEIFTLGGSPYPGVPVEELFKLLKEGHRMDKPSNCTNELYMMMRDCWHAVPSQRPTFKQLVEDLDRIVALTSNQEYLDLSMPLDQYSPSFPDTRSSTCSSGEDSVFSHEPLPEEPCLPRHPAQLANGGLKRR
# [10] = target: Mitogen-activated protein kinase kinase kinase 11 (Homo sapiens) (UniProt Q16584); settings: Compound concentration 1000.0 nM
# [11] = target: 1-phosphatidylinositol 3-phosphate 5-kinase (Homo sapiens) (UniProt Q9Y2I7); settings: Compound concentration 1000.0 nM
# [12] = target: Tyrosine-protein kinase HCK (Homo sapiens) (UniProt P08631); settings: Compound concentration 1000.0 nM
# [13] = target: Calcium/calmodulin-dependent protein kinase kinase 2 (Homo sapiens) (UniProt Q96RR4); settings: Compound concentration 1000.0 nM
# [14] = target: Casein kinase I isoform gamma-2 (Homo sapiens) (UniProt P78368); settings: Compound concentration 1000.0 nM
# [15] = target: Serine/threonine-protein kinase tousled-like 1 (Homo sapiens) (UniProt Q9UKI8); settings: Compound concentration 1000.0 nM
# [16] = target: Casein kinase I isoform gamma-1 (Homo sapiens) (UniProt Q9HCP0); settings: Compound concentration 1000.0 nM
# [17] = target: Serine/threonine-protein kinase 25 (Homo sapiens) (UniProt O00506); settings: Compound concentration 1000.0 nM
# [18] = target: Myosin light chain kinase 2, skeletal/cardiac muscle (Homo sapiens) (UniProt Q9H1R3); settings: Compound concentration 1000.0 nM
# [19] = target: Serine/threonine-protein kinase ULK3 (Homo sapiens) (UniProt Q6PHR2); settings: Compound concentration 1000.0 nM
# Chain of Serine/threonine-protein kinase ULK3 (Homo sapiens) (Q6PHR2 whole entry): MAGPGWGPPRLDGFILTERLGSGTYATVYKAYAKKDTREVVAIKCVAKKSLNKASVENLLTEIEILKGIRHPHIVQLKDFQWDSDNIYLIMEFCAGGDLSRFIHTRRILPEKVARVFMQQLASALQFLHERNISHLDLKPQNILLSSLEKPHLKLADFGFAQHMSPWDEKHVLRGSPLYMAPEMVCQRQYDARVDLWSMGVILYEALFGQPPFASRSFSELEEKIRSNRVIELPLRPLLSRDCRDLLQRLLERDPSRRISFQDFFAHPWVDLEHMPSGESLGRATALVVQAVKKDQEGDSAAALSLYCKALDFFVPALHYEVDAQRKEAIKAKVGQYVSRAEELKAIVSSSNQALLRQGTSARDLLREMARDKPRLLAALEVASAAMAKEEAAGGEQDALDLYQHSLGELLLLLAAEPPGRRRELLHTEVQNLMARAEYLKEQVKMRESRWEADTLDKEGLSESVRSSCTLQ
# [20] = test system: Mast/stem cell growth factor receptor Kit (Homo sapiens), P10721 [D816H]; settings: Compound concentration 1000.0 nM
# [21] = test system: Receptor-type tyrosine-protein kinase FLT3 (Homo sapiens), P36888 [D835H]; settings: Compound concentration 1000.0 nM
# [22] = target: Phosphatidylinositol 4-phosphate 3-kinase C2 domain-containing subunit beta (Homo sapiens) (UniProt O00750); settings: Compound concentration 1000.0 nM
# [23] = target: Serine/threonine-protein kinase Nek7 (Homo sapiens) (UniProt Q8TDX7); settings: Compound concentration 1000.0 nM
# [24] = target: Serine/threonine-protein kinase SIK2 (Homo sapiens) (UniProt Q9H0K1); settings: Compound concentration 1000.0 nM
# Chain of Serine/threonine-protein kinase SIK2 (Homo sapiens) (Q9H0K1 whole entry, looked up, canonical isoform): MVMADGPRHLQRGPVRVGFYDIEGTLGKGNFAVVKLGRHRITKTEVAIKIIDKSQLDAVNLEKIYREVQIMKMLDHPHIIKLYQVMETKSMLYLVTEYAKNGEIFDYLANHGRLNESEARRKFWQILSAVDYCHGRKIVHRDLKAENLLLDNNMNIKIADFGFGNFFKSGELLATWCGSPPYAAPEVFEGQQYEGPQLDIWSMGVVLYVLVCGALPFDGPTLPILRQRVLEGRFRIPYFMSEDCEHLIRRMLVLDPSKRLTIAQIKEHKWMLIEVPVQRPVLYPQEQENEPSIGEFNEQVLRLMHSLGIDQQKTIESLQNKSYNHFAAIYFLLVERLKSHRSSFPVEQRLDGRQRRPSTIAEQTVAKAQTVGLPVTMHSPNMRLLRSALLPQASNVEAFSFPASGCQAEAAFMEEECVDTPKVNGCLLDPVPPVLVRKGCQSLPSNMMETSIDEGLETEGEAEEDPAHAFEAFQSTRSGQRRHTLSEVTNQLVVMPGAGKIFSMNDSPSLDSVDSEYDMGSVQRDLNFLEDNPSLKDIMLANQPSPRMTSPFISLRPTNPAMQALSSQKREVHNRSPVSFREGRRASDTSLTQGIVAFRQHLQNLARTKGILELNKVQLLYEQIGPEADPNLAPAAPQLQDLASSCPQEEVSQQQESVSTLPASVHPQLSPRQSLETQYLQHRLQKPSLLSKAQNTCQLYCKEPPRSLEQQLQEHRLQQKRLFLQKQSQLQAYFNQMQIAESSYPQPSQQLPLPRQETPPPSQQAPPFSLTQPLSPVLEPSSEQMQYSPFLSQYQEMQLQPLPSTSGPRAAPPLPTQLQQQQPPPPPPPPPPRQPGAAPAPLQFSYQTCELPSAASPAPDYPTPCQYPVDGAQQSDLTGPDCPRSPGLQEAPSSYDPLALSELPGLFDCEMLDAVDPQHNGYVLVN
# [25] = target: Casein kinase I isoform epsilon (Homo sapiens) (UniProt P49674); settings: Compound concentration 1000.0 nM
# [26] = target: Receptor-type tyrosine-protein kinase FLT3 (Homo sapiens) (UniProt P36888); settings: Compound concentration 1000.0 nM
# [27] = target: Cyclin-dependent kinase 19 (Homo sapiens) (UniProt Q9BWU1); settings: Compound concentration 1000.0 nM
# [28] = target: Ankyrin repeat and protein kinase domain-containing protein 1 (Homo sapiens) (UniProt Q8NFD2); settings: Compound concentration 1000.0 nM
# [29] = target: Mitogen-activated protein kinase kinase kinase kinase 1 (Homo sapiens) (UniProt Q92918); settings: Compound concentration 1000.0 nM
# [30] = target: Tyrosine-protein kinase Tec (Homo sapiens) (UniProt P42680); settings: Compound concentration 1000.0 nM
# Chain of Tyrosine-protein kinase Tec (Homo sapiens) (P42680 whole entry): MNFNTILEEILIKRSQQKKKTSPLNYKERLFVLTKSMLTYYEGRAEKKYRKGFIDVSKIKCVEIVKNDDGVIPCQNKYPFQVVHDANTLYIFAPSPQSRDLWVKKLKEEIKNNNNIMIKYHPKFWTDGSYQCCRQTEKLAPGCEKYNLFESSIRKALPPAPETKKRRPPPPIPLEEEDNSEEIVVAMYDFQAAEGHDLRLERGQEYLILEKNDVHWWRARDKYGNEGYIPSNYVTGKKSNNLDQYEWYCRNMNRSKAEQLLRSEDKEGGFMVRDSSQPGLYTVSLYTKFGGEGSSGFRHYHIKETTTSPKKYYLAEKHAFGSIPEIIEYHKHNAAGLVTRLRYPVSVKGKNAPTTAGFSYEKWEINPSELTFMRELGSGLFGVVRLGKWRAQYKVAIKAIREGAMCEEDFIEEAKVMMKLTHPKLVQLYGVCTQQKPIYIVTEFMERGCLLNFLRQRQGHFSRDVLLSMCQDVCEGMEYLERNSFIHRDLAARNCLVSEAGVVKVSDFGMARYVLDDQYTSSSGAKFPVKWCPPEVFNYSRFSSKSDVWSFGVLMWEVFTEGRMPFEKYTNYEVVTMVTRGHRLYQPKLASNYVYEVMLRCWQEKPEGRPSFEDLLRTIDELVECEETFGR
# [31] = target: Mitogen-activated protein kinase kinase kinase 7 (Homo sapiens) (UniProt O43318); settings: Compound concentration 1000.0 nM
# Chain of Mitogen-activated protein kinase kinase kinase 7 (Homo sapiens) (O43318 whole entry): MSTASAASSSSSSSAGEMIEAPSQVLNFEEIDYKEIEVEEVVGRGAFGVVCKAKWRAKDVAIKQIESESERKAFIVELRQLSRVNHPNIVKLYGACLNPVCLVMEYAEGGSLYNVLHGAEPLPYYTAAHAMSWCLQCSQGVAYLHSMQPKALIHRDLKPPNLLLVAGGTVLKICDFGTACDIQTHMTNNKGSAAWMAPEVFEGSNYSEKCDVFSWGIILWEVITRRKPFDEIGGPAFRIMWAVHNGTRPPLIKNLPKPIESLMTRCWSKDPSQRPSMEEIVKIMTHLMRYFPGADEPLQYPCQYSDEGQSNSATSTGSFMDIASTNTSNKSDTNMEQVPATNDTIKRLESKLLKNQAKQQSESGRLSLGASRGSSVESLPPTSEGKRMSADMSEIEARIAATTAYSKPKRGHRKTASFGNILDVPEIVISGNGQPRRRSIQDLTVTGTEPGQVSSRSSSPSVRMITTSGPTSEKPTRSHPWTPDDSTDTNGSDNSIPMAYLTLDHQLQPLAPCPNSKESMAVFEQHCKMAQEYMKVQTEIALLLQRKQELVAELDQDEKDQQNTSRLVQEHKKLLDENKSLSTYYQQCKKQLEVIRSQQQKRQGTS
# [32] = target: Mitogen-activated protein kinase 10 (Homo sapiens) (UniProt P53779); settings: Compound concentration 1000.0 nM
# [33] = target: Serine/threonine-protein kinase LATS2 (Homo sapiens) (UniProt Q9NRM7); settings: Compound concentration 1000.0 nM
# [34] = target: Serine/threonine-protein kinase SBK1 (Homo sapiens) (UniProt Q52WX2); settings: Compound concentration 1000.0 nM
# Chain of Serine/threonine-protein kinase SBK1 (Homo sapiens) (Q52WX2 whole entry): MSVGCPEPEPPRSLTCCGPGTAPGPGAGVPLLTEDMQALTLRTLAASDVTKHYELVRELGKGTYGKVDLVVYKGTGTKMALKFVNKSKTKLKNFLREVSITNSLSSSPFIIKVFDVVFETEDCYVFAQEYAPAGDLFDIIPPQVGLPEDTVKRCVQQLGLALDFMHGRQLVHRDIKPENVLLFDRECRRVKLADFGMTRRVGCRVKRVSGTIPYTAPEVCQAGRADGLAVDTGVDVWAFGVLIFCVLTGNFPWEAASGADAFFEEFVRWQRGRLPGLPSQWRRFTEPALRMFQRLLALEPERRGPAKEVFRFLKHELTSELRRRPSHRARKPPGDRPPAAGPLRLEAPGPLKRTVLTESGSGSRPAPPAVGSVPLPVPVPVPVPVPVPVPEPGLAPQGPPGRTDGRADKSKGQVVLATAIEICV
# [35] = target: Serine/threonine-protein kinase MRCK gamma (Homo sapiens) (UniProt Q6DT37); settings: Compound concentration 1000.0 nM
# [36] = target: Serine/threonine-protein kinase MAK (Homo sapiens) (UniProt P20794); settings: Compound concentration 1000.0 nM
# [37] = target: Dual specificity mitogen-activated protein kinase kinase 1 (Homo sapiens) (UniProt Q02750); settings: Compound concentration 1000.0 nM
# [38] = target: Serine/threonine-protein kinase LATS1 (Homo sapiens) (UniProt O95835); settings: Compound concentration 1000.0 nM
# [39] = target: Angiopoietin-1 receptor (Homo sapiens) (UniProt Q02763); settings: Compound concentration 1000.0 nM
# [40] = test system: Phosphatidylinositol 4,5-bisphosphate 3-kinase catalytic subunit alpha isoform (Homo sapiens), P42336 [E542K]; settings: Compound concentration 1000.0 nM
# [41] = test system: Receptor-type tyrosine-protein kinase FLT3 (Homo sapiens), P36888 [D835V]; settings: Compound concentration 1000.0 nM
# [42] = target: Epithelial discoidin domain-containing receptor 1 (Homo sapiens) (UniProt Q08345); settings: Compound concentration 1000.0 nM
# [43] = test system: Tyrosine-protein kinase ABL1 (Homo sapiens), P00519 [M351T]; settings: Compound concentration 1000.0 nM
# [44] = target: High affinity nerve growth factor receptor (Homo sapiens) (UniProt P04629); settings: Compound concentration 1000.0 nM
# [45] = target: Calcium/calmodulin-dependent protein kinase type II subunit delta (Homo sapiens) (UniProt Q13557); settings: Compound concentration 1000.0 nM
# Chain of Calcium/calmodulin-dependent protein kinase type II subunit delta (Homo sapiens) (Q13557 whole entry): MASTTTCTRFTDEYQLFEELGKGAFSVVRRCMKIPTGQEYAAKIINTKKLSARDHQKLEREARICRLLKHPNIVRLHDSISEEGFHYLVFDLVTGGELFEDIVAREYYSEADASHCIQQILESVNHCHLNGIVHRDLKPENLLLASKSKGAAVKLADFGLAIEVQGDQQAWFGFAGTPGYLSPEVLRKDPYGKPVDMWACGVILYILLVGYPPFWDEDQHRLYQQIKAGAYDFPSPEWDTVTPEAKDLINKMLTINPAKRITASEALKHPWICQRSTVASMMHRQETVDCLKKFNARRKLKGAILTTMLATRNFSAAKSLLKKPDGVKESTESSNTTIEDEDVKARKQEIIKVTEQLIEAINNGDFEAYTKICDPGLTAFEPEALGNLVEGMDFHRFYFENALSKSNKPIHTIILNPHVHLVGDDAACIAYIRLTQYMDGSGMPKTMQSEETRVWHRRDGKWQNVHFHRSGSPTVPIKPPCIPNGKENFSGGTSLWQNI
# Chain of Cyclin-dependent kinase-like 3 (Homo sapiens) (Q8IVW4 whole entry, looked up): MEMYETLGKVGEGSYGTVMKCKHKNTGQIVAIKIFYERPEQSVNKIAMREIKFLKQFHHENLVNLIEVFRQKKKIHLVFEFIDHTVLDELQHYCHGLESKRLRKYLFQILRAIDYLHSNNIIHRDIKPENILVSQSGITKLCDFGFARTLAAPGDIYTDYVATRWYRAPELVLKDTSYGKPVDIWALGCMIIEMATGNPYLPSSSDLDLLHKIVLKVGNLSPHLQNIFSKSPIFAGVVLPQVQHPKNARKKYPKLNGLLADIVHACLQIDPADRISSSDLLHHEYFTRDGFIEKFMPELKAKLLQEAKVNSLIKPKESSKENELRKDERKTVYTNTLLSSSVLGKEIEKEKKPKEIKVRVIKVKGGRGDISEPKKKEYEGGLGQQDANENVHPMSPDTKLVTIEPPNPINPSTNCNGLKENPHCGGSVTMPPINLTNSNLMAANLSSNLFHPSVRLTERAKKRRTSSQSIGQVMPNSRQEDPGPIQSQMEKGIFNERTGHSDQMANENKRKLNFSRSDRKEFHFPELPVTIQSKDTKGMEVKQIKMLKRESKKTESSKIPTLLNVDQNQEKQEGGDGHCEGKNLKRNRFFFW
smiles,measurement,setting,value
NS(=O)(=O)c1cc(NC(=O)Cc2ccccc2)ccc1Oc1cccc(Cl)c1 [BAY-1797],residual activity,[1],96%
same,residual activity,[2],95%
same,residual activity,[3],98%
same,residual activity,[4],100%
same,residual activity,[5],100%
same,residual activity,[6],100%
same,inhibition,[7],-8.2%
same,residual activity,[8],90%
same,residual activity,[9],100%
same,residual activity,[10],78%
same,residual activity,[11],95%
same,residual activity,[12],54%
same,residual activity,[13],91%
same,residual activity,[14],100%
same,residual activity,[15],99%
same,residual activity,[16],89%
same,residual activity,[17],88%
same,residual activity,[18],81%
same,residual activity,[19],74%
same,residual activity,[20],76%
same,residual activity,[21],98%
same,residual activity,[22],91%
same,residual activity,[23],86%
same,residual activity,[24],100%
same,residual activity,[25],100%
same,residual activity,[26],90%
same,residual activity,[27],91%
same,residual activity,[28],78%
same,residual activity,[29],91%
same,residual activity,[30],96%
same,residual activity,[31],75%
same,residual activity,[32],89%
same,residual activity,[33],94%
same,residual activity,[34],100%
same,residual activity,[35],100%
same,residual activity,[36],100%
same,residual activity,[37],97%
same,residual activity,[38],79%
same,residual activity,[39],90%
same,residual activity,[40],87%
same,residual activity,[41],86%
same,residual activity,[42],94%
same,residual activity,[43],78%
same,residual activity,[44],73%
same,residual activity,[45],97%
NS(=O)(=O)c1cc(NC(=O)C2(c3ccccc3Cl)CC2)ccc1Oc1cccc(Cl)c1 [BAY-207],residual activity,[1],88%
same,residual activity,[2],77%
same,residual activity,[3],100%
same,residual activity,[4],91%
same,residual activity,[5],100%
same,residual activity,[6],79%
same,inhibition,[7],18.6%
same,residual activity,[8],100%
same,residual activity,[9],100%
same,residual activity,[10],79%
same,residual activity,[11],100%
same,residual activity,[12],89%
same,residual activity,[13],89%
same,residual activity,[14],82%
same,residual activity,[15],99%
same,residual activity,[16],90%
same,residual activity,[17],100%
same,residual activity,[18],73%
same,residual activity,[19],83%
same,residual activity,[20],86%
same,residual activity,[21],47%
same,residual activity,[22],100%
same,residual activity,[23],90%
same,residual activity,[24],100%
same,residual activity,[25],64%
same,residual activity,[26],70%
same,residual activity,[27],85%
same,residual activity,[28],97%
same,residual activity,[29],66%
same,residual activity,[30],81%
same,residual activity,[31],98%
same,residual activity,[32],100%
same,residual activity,[33],68%
same,residual activity,[34],100%
same,residual activity,[35],82%
same,residual activity,[36],89%
same,residual activity,[37],88%
same,residual activity,[38],69%
same,residual activity,[39],69%
same,residual activity,[40],80%
same,residual activity,[41],100%
same,residual activity,[42],83%
same,residual activity,[43],70%
same,residual activity,[44],100%
same,residual activity,[45],100%
